In US6495715B2, “Calcium channel blockers” (Warner-Lambert Company, priority 1997, dated 2002):
Values belong to the molecule of their own block, whether it stands above or below them.

Target: T1, N-type Ca2+ channel (Homo sapiens, UniProt Q00975)
T1 construct: host or cells: IMR-32 cells, differentiated with dibutyryl cAMP and bromodeoxyuridine
Assay: Measurement of N-type Ca2+ channel blocking potencies in IMR-32 cells using the fluorescent Ca2+ indicator Indo-1
Assay type: cell-based
Conditions: for IC50: K+-stimulated Ca2+ flux, 5 μM nitrendipine to block L-type channels; for inhibition at 1 µM / IMR 32 % of Blockade @ 1 μM: 1 μM compound; for inhibition at 1 µM: read-out: IMR 32 % of Blockade @ 1 μM; for inhibition at 10 µM / IMR 32 % of Blockade @ 10 μM: 10 μM compound; for inhibition at 10 µM: read-out: IMR 32 % of Blockade @ 10 μM
Experimental: Measurement of N-type Ca^2+ Channel Blocking Potencies of Compounds in IMR-32 Cells Using the Fluorescent Ca^2+Indicator Indo-1
IMR-32 cells are a human tumoral cell line of neural origin. […] Calcium flux into these cells may be induced by stimulation with elevated potassium concentrations. The L-channel component of calcium flux may be blocked by adding 5 μM nitrendipine. The remaining component of calcium entry into the IMR-32 cells is due to calcium flux through N-type calcium channels. Intracellular calcium concentrations are measured using the fluorescent calcium indicator Indo-1. The effect of drug concentration on calcium uptake is studied.
The IMR-32 cell line was obtained from the American Type Culture Collection (Rockville, Md.). Cells were grown in Eagle's Minimum Essential Medium with Earle's salts supplemented with 10% fetal bovine serum, 2 mM L-Gln and antibiotic/antimycotic mixture (Gibco). […] After 7 to 13 days of differentiation, cells were detached using 0.5 mM EDTA and loaded with 5 μM Indo-1 acetoxymethyl ester (Molecular Probes, Eugene, Oreg.) at 30° C. for 45 minutes. Loaded cells were washed twice, resuspended (˜10^7 cells/mL) in assay buffer (10 mM HEPES/Tris pH 7.4 in Hank's Balanced Salt Solution without bicarbonate or phenol red containing 0.5% bovine serum albumin) and kept on ice until use. Fluorescence measurements were carried out in a Photon Technology International (PTI, South Brunswick, N.J.) Model RF-F3004 spectrofluorometer with dual emission monochromators using excitation at […] and emission at 400 and 490 nm. The instrument was equipped with a thermostated cuvette holder with stirring capabilities as well as with a computer-controlled pump which allowed for reagent addition during measurement. Instrument control and data collection was done by PTI's OSCAR software running on an IBM compatible computer. Different concentrations of the test compounds (60 μL in dimethyl sulfoxide) were added to 5.94 mL of assay buffer containing approximately 3×10^6 loaded cells, and 5 μM Nitrendipine (in […] EtOH) to block L-type Ca^2+ channels. Samples were incubated for 10 minutes at 30° C. and then aliquoted into three 10×10 mm disposable acrylic cuvettes. Emission signals at 400 and 490 nm were acquired from each cuvette at 30° C. for 50 seconds. At 20 seconds after the start of reading, cells were depolarized by the addition of 160 μL of stimulation solution (1 M KCl, 68 mM CaCl2) to the cuvette via the computer-controlled pump. Ratio of dual emission signals (400 nm/490 nm), which is proportional to intracellular Ca^2+ concentration, was plotted against time, and the difference between maximal response after stimulation and basal value (before stimulation) was determined. Values obtained in this way were plotted as a function of drug concentration. IC50 values of test compounds were calculated by fitting a four-parameter logistic function to the data using the least squares method.

T1 sequence (Q00975 whole entry): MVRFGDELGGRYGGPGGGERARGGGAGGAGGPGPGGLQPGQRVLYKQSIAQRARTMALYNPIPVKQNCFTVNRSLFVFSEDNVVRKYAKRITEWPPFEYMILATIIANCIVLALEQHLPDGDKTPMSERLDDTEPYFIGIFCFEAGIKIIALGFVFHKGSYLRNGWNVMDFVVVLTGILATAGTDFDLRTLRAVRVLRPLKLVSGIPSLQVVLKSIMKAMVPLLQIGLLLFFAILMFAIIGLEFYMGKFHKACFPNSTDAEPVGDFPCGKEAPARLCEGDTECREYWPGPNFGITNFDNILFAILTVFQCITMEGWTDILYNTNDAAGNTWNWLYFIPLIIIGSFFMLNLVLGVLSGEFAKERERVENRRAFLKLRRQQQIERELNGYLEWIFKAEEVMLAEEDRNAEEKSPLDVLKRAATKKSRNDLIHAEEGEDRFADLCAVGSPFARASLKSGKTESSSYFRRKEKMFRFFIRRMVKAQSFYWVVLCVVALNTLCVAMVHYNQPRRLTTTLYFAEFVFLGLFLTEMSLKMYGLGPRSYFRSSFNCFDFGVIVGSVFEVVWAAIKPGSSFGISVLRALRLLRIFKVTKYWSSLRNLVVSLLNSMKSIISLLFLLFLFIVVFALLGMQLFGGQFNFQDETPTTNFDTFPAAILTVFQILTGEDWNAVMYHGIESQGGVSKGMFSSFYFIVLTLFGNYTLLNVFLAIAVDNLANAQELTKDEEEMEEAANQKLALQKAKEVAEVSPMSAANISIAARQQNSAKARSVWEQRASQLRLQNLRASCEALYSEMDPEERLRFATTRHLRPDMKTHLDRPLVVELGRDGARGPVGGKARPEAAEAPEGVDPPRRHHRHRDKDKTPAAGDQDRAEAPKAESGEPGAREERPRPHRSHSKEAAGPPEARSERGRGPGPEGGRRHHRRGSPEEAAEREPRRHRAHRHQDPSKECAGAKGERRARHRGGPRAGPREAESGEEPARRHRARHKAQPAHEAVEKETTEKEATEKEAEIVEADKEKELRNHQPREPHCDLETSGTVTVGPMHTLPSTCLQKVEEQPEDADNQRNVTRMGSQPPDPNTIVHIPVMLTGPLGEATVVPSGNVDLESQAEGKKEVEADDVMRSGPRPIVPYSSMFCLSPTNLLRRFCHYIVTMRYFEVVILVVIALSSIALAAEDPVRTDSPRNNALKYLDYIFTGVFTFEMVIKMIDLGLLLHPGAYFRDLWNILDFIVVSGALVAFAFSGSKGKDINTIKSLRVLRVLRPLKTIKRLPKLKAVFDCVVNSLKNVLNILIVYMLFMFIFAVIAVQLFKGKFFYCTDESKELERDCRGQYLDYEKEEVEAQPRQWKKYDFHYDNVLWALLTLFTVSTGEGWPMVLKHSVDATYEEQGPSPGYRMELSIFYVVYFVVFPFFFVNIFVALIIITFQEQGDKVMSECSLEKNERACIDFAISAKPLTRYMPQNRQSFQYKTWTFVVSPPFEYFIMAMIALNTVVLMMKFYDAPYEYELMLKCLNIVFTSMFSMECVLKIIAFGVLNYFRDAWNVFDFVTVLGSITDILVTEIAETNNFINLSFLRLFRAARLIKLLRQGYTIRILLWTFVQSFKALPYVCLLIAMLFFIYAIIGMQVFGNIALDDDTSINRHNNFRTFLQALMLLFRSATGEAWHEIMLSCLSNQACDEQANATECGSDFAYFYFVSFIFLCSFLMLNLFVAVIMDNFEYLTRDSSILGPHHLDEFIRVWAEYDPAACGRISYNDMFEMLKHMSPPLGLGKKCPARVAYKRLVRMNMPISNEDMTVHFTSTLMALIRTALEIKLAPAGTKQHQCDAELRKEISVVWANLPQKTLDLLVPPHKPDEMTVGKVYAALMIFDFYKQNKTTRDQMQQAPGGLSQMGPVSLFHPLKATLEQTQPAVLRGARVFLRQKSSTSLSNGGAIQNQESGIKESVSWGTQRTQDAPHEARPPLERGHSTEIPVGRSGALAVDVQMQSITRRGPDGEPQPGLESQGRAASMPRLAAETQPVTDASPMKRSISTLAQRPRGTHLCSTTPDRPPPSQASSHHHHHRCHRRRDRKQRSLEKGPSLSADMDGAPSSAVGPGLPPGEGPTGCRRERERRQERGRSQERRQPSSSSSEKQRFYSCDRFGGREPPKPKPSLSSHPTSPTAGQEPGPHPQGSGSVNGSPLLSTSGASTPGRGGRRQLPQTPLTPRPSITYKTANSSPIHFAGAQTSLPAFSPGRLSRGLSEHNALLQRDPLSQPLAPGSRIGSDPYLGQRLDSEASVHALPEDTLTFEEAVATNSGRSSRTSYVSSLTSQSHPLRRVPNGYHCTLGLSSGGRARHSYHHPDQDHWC
T1 sequence (P54289 25-956 partner limits assumed): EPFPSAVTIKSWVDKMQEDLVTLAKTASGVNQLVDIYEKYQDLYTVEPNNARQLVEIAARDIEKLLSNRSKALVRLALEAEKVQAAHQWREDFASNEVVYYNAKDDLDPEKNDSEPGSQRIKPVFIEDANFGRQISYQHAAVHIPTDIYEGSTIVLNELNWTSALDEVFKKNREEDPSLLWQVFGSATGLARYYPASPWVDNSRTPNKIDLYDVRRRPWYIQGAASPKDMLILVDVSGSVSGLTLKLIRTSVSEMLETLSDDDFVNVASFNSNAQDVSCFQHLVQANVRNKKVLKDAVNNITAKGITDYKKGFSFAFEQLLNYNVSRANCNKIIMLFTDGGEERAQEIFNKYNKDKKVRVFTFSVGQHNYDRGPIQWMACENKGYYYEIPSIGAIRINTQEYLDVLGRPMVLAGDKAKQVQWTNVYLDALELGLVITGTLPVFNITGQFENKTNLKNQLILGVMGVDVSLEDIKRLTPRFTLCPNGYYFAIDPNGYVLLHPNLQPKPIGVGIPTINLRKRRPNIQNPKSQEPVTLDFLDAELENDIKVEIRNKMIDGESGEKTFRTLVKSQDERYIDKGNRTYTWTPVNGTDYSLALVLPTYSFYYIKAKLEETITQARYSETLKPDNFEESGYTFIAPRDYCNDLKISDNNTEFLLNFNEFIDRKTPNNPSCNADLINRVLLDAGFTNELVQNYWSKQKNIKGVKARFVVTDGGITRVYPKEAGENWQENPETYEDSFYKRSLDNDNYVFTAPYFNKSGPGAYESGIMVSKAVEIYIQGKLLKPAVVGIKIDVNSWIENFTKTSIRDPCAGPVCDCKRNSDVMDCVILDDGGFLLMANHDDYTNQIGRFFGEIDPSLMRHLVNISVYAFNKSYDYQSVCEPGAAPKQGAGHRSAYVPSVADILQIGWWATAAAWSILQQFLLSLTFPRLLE
T1 sequence (P54289 957-1103 partner limits assumed): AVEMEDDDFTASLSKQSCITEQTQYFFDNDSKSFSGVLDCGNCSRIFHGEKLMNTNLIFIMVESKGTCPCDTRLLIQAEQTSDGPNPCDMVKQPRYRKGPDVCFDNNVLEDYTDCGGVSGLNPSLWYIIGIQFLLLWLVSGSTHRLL
T1 sequence (Q02641 whole entry partner): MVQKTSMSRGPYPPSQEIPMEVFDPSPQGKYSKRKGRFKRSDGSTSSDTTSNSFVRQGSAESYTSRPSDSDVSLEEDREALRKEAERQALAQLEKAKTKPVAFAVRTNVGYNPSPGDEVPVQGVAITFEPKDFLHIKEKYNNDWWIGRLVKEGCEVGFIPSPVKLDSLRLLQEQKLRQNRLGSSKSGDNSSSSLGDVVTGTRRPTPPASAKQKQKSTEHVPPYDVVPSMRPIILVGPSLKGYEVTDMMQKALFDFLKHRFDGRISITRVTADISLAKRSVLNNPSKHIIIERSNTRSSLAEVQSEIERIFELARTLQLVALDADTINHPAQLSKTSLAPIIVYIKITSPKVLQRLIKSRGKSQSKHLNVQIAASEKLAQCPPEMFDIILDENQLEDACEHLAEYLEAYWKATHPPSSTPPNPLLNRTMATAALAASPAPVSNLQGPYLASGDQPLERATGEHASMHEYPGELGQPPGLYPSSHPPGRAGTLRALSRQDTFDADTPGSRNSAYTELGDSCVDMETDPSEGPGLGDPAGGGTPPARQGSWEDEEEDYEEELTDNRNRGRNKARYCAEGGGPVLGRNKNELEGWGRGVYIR

SMILES: CC(C)=CCN[C@@H](CC(C)C)C(=O)N[C@@H](C)CN(CC=C(C)C)c1ccc(OCc2ccccc2)cc1 (relative stereo) [Example 15, [S-(R*,R*)]-4-Methyl-2-(3-methyl-but-2-enylamino)-pentanoic acid {2-[(4-benzyloxy-phenyl)-(3-methyl-but-2-enyl)-amino]-1-methyl-ethyl}-amide]
IMR 32 % of Blockade @ 0.3 μM (0.3 μM compound, 5 μM nitrendipine): 21%
IMR 32 % of Blockade @ 3 μM (3 μM compound, 5 μM nitrendipine): 65%

SMILES: CC(C)=CCN(C[C@H](C)NC(=O)[C@H](CC(C)C)NCCC(C)C)c1ccc(OCc2ccccc2)cc1 (relative stereo) [Example 16, [S-(R*,R*)]-4-Methyl-2-(3-methyl-butylamino)-pentanoic acid {2-[(4-benzyloxy-phenyl)-(3-methyl-but-2-enyl)-amino]-1-methyl-ethyl}-amide]
IMR 32 % of Blockade @ 1 μM (5 μM nitrendipine): 36%
IMR 32 % of Blockade @ 10 μM (5 μM nitrendipine): 86%

SMILES: CC(C)CCN(c1ccc(NCc2ccccn2)cc1)C1CCN(C(=O)[C@H](CC(C)C)NC(=O)N2CCCCCC2)CC1 [Example 40]
IC50: 1.1 µM

SMILES: CC(C)=CCN(C[C@H](C)NC(=O)[C@H](CC(C)C)N(CCC(C)C)CCC(C)C)c1ccc(OCc2ccccc2)cc1 (relative stereo) [Example 18, [S-(R*,R*)]-2-[Bis-(3-methyl-butyl)-amino]-4-methyl-pentanoic acid {2-[(4-benzyloxy-phenyl)-(3-methyl-but-2-enyl)-amino]-1-methyl-ethyl}-amide]
IMR 32 % of Blockade @ 1 μM (5 μM nitrendipine): 67%
IMR 32 % of Blockade @ 10 μM (5 μM nitrendipine): 71%

SMILES: CC(C)CCN(c1ccc(NC(=O)OCc2ccccc2)cc1)C1CCN(C(=O)[C@H](CC(C)C)NC(=O)N2CCCCCC2)CC1 [Example 34, (S)-{4-[(1-{2-[(Azepane-1-carbonyl)-amino]-4-methyl-pentanoyl}-piperidin-4-yl)-(3-methyl-butyl)-amino]-phenyl}-carbamic acid benzyl ester]
inhibition at 1 µM (5 μM nitrendipine): 83%

SMILES: CC(C)=CCN(CC(C)(C)NC(=O)[C@H](CC(C)C)N(C)CCC(C)C)c1ccc(OCc2ccccc2)cc1 [Example 11, (S)-4-Methyl-2-[methyl-(3-methyl-butyl)-amino]-pentanoic acid {2-[(4-benzyloxy-phenyl)-(3-methyl-but-2-enyl)-amino]-1.1-dimethyl-ethyl}-amide]
IMR 32 % of Blockade @ 1 μM (5 μM nitrendipine): 49%
IMR 32 % of Blockade @ 10 μM (5 μM nitrendipine): 91%

SMILES: CC(C)=CCN(C[C@H](C)NC(=O)[C@H](CC(C)C)N(C)C)c1ccc(OCc2ccccc2)cc1 (relative stereo) [Example 14, [S-(R*,R*)]-2-Dimethylamino-4-methyl-pentanoic acid {2-[(4-benzyloxy-phenyl)-(3-methyl-but-2-enyl)-amino]-1-methyl-ethyl}-amide]
IMR 32 % of Blockade @ 1 μM (5 μM nitrendipine): 36%
IMR 32 % of Blockade @ 10 μM (5 μM nitrendipine): 86%

SMILES: CC(C)=CCN(C[C@H](C)NC(=O)[C@H](CC(C)C)N(CC=C(C)C)CC=C(C)C)c1ccc(OCc2ccccc2)cc1 (relative stereo) [Example 19, [S-(R*,R*)]-2-{Bis]-(3-methyl-but-2-enylamino)-4-Methyl-pentanoic acid {2-[(4-benzyloxy-phenyl)-(3-methyl-but-2-enyl)-amino]-1-methyl-ethyl 1-amide]
IMR 32 % of Blockade @ 1 μM (5 μM nitrendipine): 74%
IMR 32 % of Blockade @ 10 μM (5 μM nitrendipine): 70%

SMILES: CC(C)=CCN(c1ccc(C#CC2(O)CCCCC2)cc1)C1CCN(C(=O)C(CC(C)C)NC(=O)N2CCCCCC2)CC1 (stereo in doubt) [Example 43, (S)-Azepane-1-carboxylic acid (1-{4-[[4-(1-hydroxy-cyclohexylethynyl)-phenyl]-(3-methyl-but-2-enyl)-amino]-piperidine-1-carbonyl}-3-methyl-butyl)-amide]
IC50: 3.4 µM

SMILES: CC(C)=CCN(C[C@H](C)NC(=O)[C@H](CC(C)C)NC(=O)N1CCCCCC1)c1ccc(OCc2ccccc2)cc1 (relative stereo) [Example 2, [S-(R*,R*)]-Azepane-1-carboxylic acid (1-{2-[(4-benzyloxy-phenyl)-(3-methyl-but-2-enyl)-amino]-1-methyl-ethylcarbamoyl}-3-methyl-butyl)-amide]
IMR 32 % of Blockade @ 1 μM (5 μM nitrendipine): 50% @ 1

SMILES: CC(C)=CCN(CC(C)(C)NC(=O)[C@H](CC(C)C)N(C)Cc1ccc(C(C)(C)C)cc1)c1ccc(OCc2ccccc2)cc1 [Example 13, (S)-2-[(4-tert-Butyl-benzyl)-methyl-amino]-4-methyl-pentanoic acid {2-[(4-benzyloxy-phenyl)-(3-methyl-but-2-enyl)-amino]-1.1-dimethyl-ethyl}-amide]
IC50: 5.6 µM

SMILES: CC(C)C[C@H](NC(=O)N1CCCCCC1)C(=O)N1CCC(N(Cc2ccccc2)c2ccc(OCc3ccccc3)cc2)CC1 [Example 31, (S)-Azepane-1-carboxylic acid (1-{4-[benzyl-(4-benzyloxy-phenyl)-amino]-piperidine-1-carbonyl}-3-methyl-butyl)-amide]
IC50: 0.43 µM

SMILES: CC(C)CCN(c1ccc(NCC2CCCCC2)cc1)C1CCN(C(=O)[C@H](CC(C)C)NC(=O)N2CCCCCC2)CC1 [Example 37, (S)-Azepane-1-carboxylic acid (1-{4-[[4-(Cyclohexylmethyl-amino)-phenyl]-(3-methyl-butyl)-amino]-piperidine-1-carbonyl}-3-methyl-butyl)-amide]
IC50: 0.29 µM

More lines, now with the values ahead:

IC50: 0.75 µM
SMILES: CC(C)=CCN(c1ccc(OCc2ccccc2)cc1)C1CCN(C(=O)[C@H](CC(C)C)NC(C)C)CC1 [Example 24, (S)-1-{4-[(4-Benzyloxy-phenyl)-(3-methyl-but-2-enyl)-amino]-piperidin-1-yl}-2-isopropylamino-4-methyl-pentan-1-one]

inhibition at 1 µM (5 μM nitrendipine): 40%
inhibition at 10 µM (5 μM nitrendipine): 100%
SMILES: CC(C)=CCN(c1ccc(OCc2ccccc2)cc1)C1CCCN(C(=O)[C@@H](N)CC(C)C)C1 (mixture of isomers) [Example 45, (S, R/S)-2-Amino-1-{3-[(4-benzyloxy-phenyl)-(3-methyl-but-2-enyl)-amino]-piperidin-1-yl}-4-methyl-pentan-1-one]

inhibition at 1 µM (5 μM nitrendipine): 43%
inhibition at 10 µM (5 μM nitrendipine): 92%
SMILES: CC(C)=CCN(c1ccc(OCc2ccccc2)cc1)C1CCN(C(=O)[C@H](N)CC(C)C)CC1 [Example 21, (R)-2-Amino-1-{4-[(4-benzyloxy-phenyl)-(3-methyl-but-2-enyl)-amino]-piperidin-1-yl}-4-methyl-pentan-1-one]

IC50: 0.17 µM
SMILES: CC(C)=CCN(c1ccc(NC(=O)OCc2ccccc2)cc1)C1CCN(C(=O)[C@H](CC(C)C)NC(=O)N2CCCCCC2)CC1 [Example 33, (S)-{4-[(1-{2-[(Azepane-1-carbonyl)-amino]-4-methyl-pentanoyl}-piperidin-4-yl)-(3-methyl-but-2-enyl)-amino]-phenyl}-carbamic acid benzyl ester]

inhibition at 1 µM (5 μM nitrendipine): 41%
inhibition at 10 µM (5 μM nitrendipine): 91%
SMILES: CC(C)=CCN(c1ccc(OCc2ccccc2)cc1)C1CCCN(C(=O)[C@H](CC(C)C)NC(=O)N2CCCCCC2)C1 (mixture of isomers) [Example 46, (S,R/S)-Azepane-1-carboxylic acid (1-{3-[(4-benzyloxy-phenyl)-(3-methyl-but-2-enyl)-amino]-piperidine-1-carbonyl}-3-methyl-butyl)-amide]

IC50: 0.83 µM
SMILES: CCN(c1ccc(OCc2ccccc2)cc1)C1CCN(C(=O)[C@H](CC(C)C)NC(=O)N2CCCCCC2)CC1 [Example 30, (S)-Azepane-1-carboxylic acid (1-{4-[(4-benzyloxy-phenyl)-ethyl-amino]-piperidine-1-carbonyl}-3-methyl-butyl)-amide]

IC50: 0.51 µM
SMILES: CC(C)=CCN(c1ccc(OCc2ccccc2)cc1)C1CCN(C(=O)[C@H](CC(C)C)NC2CCCCC2)CC1 [Example 26, (S)-1-{4-[(4-Benzyloxy-phenyl)-(3-methyl-but-2-enyl)-amino]-piperidin-1-yl}-2-cyclohexylamino-4-methyl-pentan-1-one]

IC50: 0.39 µM
SMILES: CC(C)=CCN(c1ccc(OCc2ccccc2)cc1)C1CCN(C(=O)[C@H](CC(C)C)NCc2ccc[nH]2)CC1 [Example 27, (S)-1-{4-[(4-Benzyloxy-phenyl)-(3-methyl-but-2-enyl)-amino]-piperidin-1-yl}-4-methyl-2-[(1H-pyrrol-2-ylmethyl)-amino]-pentan-1-one]
